The record followed here is publication PMC9516332 (Frontiers in Oncology, 2022).

Structures are written as SMILES. Read-outs that look alike come from different tables or passages of the source.

Common to all, as to test: Kinase panel profiling at 1 µmol/L (MSA or IMAP), percentage inhibition
Holding throughout (format): biochemical

Test [1] has as its target panel of 255 wild-type kinases (Homo sapiens, UniProt Q02763). To be noted: read-out: %-inhibition at 1 µmol/L, TIE2.
Test [2] concerns the target panel of 255 wild-type kinases (Homo sapiens, UniProt Q5VT25). The following applies: read-out: %-inhibition, MRCKα.
Test [3] addresses T1, panel of 255 wild-type kinases (Homo sapiens, UniProt Q9NZJ5).
T1 sequence (Q9NZJ5 30-1116): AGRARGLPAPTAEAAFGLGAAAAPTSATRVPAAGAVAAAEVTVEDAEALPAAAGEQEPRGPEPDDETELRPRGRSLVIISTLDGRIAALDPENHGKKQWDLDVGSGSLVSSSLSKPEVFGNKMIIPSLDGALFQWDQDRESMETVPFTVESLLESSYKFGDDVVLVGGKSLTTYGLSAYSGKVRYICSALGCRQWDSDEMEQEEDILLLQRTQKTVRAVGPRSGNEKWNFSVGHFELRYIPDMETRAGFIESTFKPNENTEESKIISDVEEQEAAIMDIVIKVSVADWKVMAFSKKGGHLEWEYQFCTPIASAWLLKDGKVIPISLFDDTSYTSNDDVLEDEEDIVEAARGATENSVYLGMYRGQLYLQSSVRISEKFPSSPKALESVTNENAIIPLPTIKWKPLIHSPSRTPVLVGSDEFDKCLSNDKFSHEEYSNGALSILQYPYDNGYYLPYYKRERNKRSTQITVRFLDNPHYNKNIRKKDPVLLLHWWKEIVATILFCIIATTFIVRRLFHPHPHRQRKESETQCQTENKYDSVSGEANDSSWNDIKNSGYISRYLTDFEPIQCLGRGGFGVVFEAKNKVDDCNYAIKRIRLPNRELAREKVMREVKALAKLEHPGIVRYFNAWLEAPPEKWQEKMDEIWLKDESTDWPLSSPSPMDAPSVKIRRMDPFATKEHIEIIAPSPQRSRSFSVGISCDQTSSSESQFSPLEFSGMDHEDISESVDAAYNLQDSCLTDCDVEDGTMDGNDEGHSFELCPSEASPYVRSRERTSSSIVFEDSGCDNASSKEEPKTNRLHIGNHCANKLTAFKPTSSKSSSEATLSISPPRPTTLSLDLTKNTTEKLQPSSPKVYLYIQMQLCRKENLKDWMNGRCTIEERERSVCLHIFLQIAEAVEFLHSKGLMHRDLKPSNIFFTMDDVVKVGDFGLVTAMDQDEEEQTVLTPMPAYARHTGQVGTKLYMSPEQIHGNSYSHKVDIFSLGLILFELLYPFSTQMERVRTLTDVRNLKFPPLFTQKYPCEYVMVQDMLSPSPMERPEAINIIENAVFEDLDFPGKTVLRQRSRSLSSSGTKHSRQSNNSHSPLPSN
To be noted: read-out: %-inhibition at 1 µmol/L, PEK.

In test [4] the target is T2, panel of 255 wild-type kinases (Homo sapiens, UniProt Q13237).
T2 sequence (Q13237 1-762): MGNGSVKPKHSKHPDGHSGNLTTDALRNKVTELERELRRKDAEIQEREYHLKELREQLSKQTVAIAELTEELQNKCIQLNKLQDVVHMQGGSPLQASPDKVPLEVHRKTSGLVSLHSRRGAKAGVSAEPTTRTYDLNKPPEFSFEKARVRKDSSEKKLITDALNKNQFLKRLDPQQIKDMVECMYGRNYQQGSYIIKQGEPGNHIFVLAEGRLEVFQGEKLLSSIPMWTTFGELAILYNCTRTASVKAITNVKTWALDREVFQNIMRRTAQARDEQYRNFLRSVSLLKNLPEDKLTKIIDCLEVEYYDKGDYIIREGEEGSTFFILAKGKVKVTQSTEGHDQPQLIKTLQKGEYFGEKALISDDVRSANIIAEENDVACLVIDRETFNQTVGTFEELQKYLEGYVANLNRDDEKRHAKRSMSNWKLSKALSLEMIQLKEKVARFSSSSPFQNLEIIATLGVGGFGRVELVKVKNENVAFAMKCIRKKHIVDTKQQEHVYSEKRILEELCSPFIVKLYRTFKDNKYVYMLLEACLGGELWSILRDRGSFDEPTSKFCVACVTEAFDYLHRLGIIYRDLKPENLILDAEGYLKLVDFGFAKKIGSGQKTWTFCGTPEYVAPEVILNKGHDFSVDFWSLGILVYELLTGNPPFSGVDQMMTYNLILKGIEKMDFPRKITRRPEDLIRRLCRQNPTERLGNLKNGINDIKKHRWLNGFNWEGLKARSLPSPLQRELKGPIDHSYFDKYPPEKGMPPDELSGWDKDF
To be noted: read-out: %-inhibition CGK2.

The target of test [5] is panel of 255 wild-type kinases (Homo sapiens, UniProt P29376). To be noted: read-out: %-inhibition at 1 µmol/L, LTK.
In test [6] the target is panel of 255 wild-type kinases (Homo sapiens, UniProt P22607). To be noted: read-out: %-inhibition at 1 µmol/L, FGFR3.
In test [7] the target is panel of 255 wild-type kinases (Homo sapiens, UniProt P57059). To be noted: read-out: %-inhibition at 1 µmol/L, SIK.
The target in test [8] is panel of 255 wild-type kinases (Homo sapiens, UniProt O94804). To be noted: read-out: %-inhibition at 1 µmol/L, LOK.
Where [9] appears, read: kinase TIE2, 1 µmol/L single concentration.
The mark [10] stands for this setting: MRCKα, 1 µmol/L single concentration.
The mark [11] stands for this setting: kinase PEK, 1 µmol/L single concentration.
[12] abbreviates: CGK2 kinase assay, 1 µmol/L single concentration.
Where [13] appears, read: kinase LTK, 1 µmol/L single concentration.
Where [14] appears, read: kinase FGFR3, 1 µmol/L single concentration.
[15] abbreviates: kinase SIK, 1 µmol/L single concentration.
Setting [16] is: kinase LOK, 1 µmol/L single concentration.

In the case of `Cc1nc(NC(=O)N2CCC[C@H]2C(N)=O)sc1-c1ccnc(C(C)(C)C(F)(F)F)c1` [alpelisib], the inhibition at 1 µM is -0.712% in test [1] (setting [9]); -2% in test [2] (setting [10]); 10% in test [3] (setting [11]); -5% in test [4] (setting [12]); -2.85% in test [5] (setting [13]); 3.39% in test [6] (setting [14]). For the same molecule, the results for the inhibition at 1 µM in test [7] (setting [15]) and in test [8] (setting [16]) were -10% and -7%, respectively.
As for `Cn1cc(-c2cc3c(N4CCN(c5ncc([C@@](C)(N)c6ccc(F)cc6)cn5)CC4)ncnn3c2)cn1` [avapritinib], the inhibition at 1 µM in test [1] (setting [9]) turned out to be 3.23%; in test [2] (setting [10]), 4%; in test [3] (setting [11]), 1.51%; in test [4] (setting [12]), 4.65%; in test [5] (setting [13]), 51%; in test [6] (setting [14]) it was 41%. The inhibition at 1 µM in test [7] (setting [15]) is 37%; in test [8] (setting [16]), 54%.
As for `Cn1cnc2c(F)c(Nc3ccc(Br)cc3F)c(C(=O)NOCCO)cc21` [binimetinib], the inhibition at 1 µM was 2.63% in test [1] (setting [9]); -5.53% in test [2] (setting [10]); 4.67% in test [3] (setting [11]); 2.58% in test [4] (setting [12]); 0.411% in test [5] (setting [13]); 1.4% in test [6] (setting [14]). In addition, the inhibition at 1 µM in test [7] (setting [15]) came out at 0.277%; in test [8] (setting [16]), 3.42%.
Turning to `CNC(=O)c1ccc(-c2cnc3ncc(Cc4ccc5ncccc5c4)n3n2)cc1F` [capmatinib], the inhibition at 1 µM is -3.44% in test [1]; 0.535% in test [2]; 4.25% in test [3]; -1.13% in test [4]; 49% in test [5]; 2% in test [6]. Further, the inhibition at 1 µM in test [7] was -6.33%; in test [8], 0.859%.
In the case of `COc1cc2ncnc(Nc3ccc(F)c(Cl)c3)c2cc1NC(=O)/C=C/CN1CCCCC1` [dacomitinib], the inhibition at 1 µM in test [1] (setting [9]) worked out at 16%; in test [2] (setting [10]) it was 4.59%; in test [3] (setting [11]) it was 2.82%; in test [4] (setting [12]), 10%; in test [5] (setting [13]) it was 21%; in test [6] (setting [14]) it was 26%. Besides, the inhibition at 1 µM in test [7] (setting [15]) is 40%; in test [8] (setting [16]), 86%.
On to `C[C@H](Nc1ncnc2nc[nH]c12)c1cc2cccc(Cl)c2c(=O)n1-c1ccccc1` [duvelisib], for which the inhibition at 1 µM is -0.0949% in test [1] (setting [9]); -3.44% in test [2] (setting [10]); 5.65% in test [3] (setting [11]); -0.775% in test [4] (setting [12]); 0.216% in test [5] (setting [13]); 0.29% in test [6] (setting [14]). Further, the figures for the inhibition at 1 µM in test [7] (setting [15]) and in test [8] (setting [16]) were -1.9% and 0.582%, respectively.
On to `COC(=O)N[C@@H](C)CNc1nccc(-c2cn(C(C)C)nc2-c2cc(Cl)cc(NS(C)(=O)=O)c2F)n1` [encorafenib], for which the inhibition at 1 µM in test [1] (setting [9]) was 6%; in test [2] (setting [10]) it was 0.0684%; in test [3] (setting [11]), 9%; in test [4] (setting [12]), 0.267%; in test [5] (setting [13]) it was 0.605%; in test [6] (setting [14]), 1%. Also, the inhibition at 1 µM in test [7] (setting [15]) was determined as 2.23%; in test [8] (setting [16]) it was 1.24%.
As for `CN1CCN(c2ccc(C(=O)Nc3n[nH]c4ccc(Cc5cc(F)cc(F)c5)cc34)c(NC3CCOCC3)c2)CC1` [entrectinib], the inhibition at 1 µM in test [1] (setting [9]) was 72%; in test [2] (setting [10]), -3.42%; in test [3] (setting [11]), 0.561%; in test [4] (setting [12]), 4.42%; in test [5] (setting [13]), 100%; in test [6] (setting [14]), 90%. Further, the inhibition at 1 µM in test [7] (setting [15]) came to 7.49%; in test [8] (setting [16]), 28%.
With `CCc1nc(C(N)=O)c(Nc2ccc(N3CCC(N4CCN(C)CC4)CC3)c(OC)c2)nc1NC1CCOCC1` [gilteritinib], the inhibition at 1 µM in test [1] (setting [9]) stood at 41%; in test [2] (setting [10]), 12%; in test [4] (setting [12]), 82%; in test [5] (setting [13]), 101%; in test [6] (setting [14]), 76%; in test [7] (setting [15]), 59%. The inhibition at 1 µM in test [8] (setting [16]) was determined as 100%.
As for `CCN1CCN(c2ccc(Nc3cc(N(C)C(=O)Nc4c(Cl)c(OC)cc(OC)c4Cl)ncn3)cc2)CC1` [infigratinib], the inhibition at 1 µM in test [1] (setting [9]) was 63%; in test [2] (setting [10]) it was 0.933%; in test [3] (setting [11]), 49%; in test [4] (setting [12]), -2%; in test [5] (setting [13]), 60%; in test [6] (setting [14]), 102%. The inhibition at 1 µM amounted to 30% in test [7] (setting [15]) and 34% in test [8] (setting [16]).
As for `O=C(Nc1cnn2ccc(N3CCC[C@@H]3c3cc(F)ccc3F)nc12)N1CC[C@H](O)C1` [larotrectinib], the inhibition at 1 µM in test [1] (setting [9]) is 1.84%; in test [2] (setting [10]), 0.38%; in test [3] (setting [11]), 4%; in test [4] (setting [12]), -0.443%; in test [5] (setting [13]), 16%; in test [6], 1.36%. The inhibition at 1 µM in test [7] (setting [15]) is -1.7%; in test [8] (setting [16]) it was 5.3%.
Consider `C[C@H]1Oc2cc(cnc2N)-c2c(nn(C)c2C#N)CN(C)C(=O)c2ccc(F)cc21` [lorlatinib], for which the inhibition at 1 µM in test [1] (setting [9]) was 17%; in test [2] (setting [10]), -6%; in test [3] (setting [11]), -1.65%; in test [4] (setting [12]), -3%; in test [6] (setting [14]), -0.405%; in test [7] (setting [15]), -1.87%. For the same molecule, in test [8] (setting [16]), the inhibition at 1 µM was 87%.
Regarding `CCN1C(=O)N(c2c(F)c(OC)cc(OC)c2F)Cc2cnc3[nH]c(CN4CCOCC4)cc3c21` [pemigatinib], the inhibition at 1 µM in test [1] (setting [9]) is 28%; in test [2] (setting [10]) it was -3.23%; in test [3] (setting [11]), 17%; in test [4] (setting [12]), 1.58%; in test [5] (setting [13]), 1.66%; in test [6] (setting [14]) it was 100%. Besides, the inhibition at 1 µM in test [7] (setting [15]) is 22%; in test [8] (setting [16]) it was 4.7%.
